In US10231954B2, “Neurodegenerative therapies” (LYTIX BIOPHARMA AS, priority 2014, dated 2019):

Assays:
Format in all cases: biochemical
Conditions in all cases: 100 micromolar inhibitor concentration; 100 is no change
MKK6 = target: T1, MKK6 (Homo sapiens, UniProt P52564); test: Kinase profiling MKK6
T1 sequence (P52564 1-334): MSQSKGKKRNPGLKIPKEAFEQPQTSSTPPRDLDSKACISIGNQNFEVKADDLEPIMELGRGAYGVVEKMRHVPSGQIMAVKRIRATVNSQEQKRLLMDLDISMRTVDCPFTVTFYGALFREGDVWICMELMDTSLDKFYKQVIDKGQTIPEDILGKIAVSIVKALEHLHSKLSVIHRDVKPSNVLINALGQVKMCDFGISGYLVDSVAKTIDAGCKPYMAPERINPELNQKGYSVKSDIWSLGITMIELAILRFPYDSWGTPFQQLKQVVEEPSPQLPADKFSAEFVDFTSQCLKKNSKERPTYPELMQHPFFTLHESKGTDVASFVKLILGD
Source text: (§1) Any value less that 25 is considered to be highly significant inhibition.

p38a MAPK = p38a MAPK (Homo sapiens, UniProt Q16539); test: Kinase profiling p38a MAPK
Sequence of p38a MAPK (Q16539 whole entry): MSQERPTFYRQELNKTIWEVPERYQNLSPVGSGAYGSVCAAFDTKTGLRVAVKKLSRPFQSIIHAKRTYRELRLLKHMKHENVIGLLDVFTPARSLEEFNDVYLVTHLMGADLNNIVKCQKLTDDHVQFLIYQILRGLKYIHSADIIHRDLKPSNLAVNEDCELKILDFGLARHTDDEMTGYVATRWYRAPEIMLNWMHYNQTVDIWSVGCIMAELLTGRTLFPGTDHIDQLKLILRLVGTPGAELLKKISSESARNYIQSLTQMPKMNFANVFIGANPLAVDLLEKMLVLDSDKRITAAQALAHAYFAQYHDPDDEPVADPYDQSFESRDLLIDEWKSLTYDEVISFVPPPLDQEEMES
Source text: as §1

RSK1 = RSK1 (Homo sapiens, UniProt Q15418); test: Kinase profiling RSK1
Sequence of RSK1 (Q15418 whole entry, species assumed): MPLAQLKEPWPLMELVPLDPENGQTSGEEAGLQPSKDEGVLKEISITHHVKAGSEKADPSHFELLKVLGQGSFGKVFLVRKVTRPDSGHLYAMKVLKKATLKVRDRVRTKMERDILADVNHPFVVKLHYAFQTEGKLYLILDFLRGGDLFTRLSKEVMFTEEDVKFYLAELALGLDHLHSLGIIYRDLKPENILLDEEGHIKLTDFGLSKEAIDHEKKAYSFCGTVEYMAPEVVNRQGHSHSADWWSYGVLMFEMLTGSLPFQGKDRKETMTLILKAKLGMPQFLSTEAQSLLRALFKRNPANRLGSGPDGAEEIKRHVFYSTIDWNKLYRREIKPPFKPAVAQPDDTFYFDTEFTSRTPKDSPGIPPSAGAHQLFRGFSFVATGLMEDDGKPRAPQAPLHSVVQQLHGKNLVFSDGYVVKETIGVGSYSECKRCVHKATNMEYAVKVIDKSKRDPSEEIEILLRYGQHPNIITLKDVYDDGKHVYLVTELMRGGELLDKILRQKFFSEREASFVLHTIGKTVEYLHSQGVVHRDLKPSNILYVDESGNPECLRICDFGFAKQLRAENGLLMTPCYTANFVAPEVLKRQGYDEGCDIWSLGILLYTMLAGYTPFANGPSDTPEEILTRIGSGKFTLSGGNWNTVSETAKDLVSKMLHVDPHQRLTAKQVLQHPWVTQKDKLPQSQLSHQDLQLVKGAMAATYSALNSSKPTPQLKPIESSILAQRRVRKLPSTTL
Source text: as §1

PKBa = PKBa (Homo sapiens, UniProt P31749); test: Kinase profiling PKBa
Sequence of PKBa (P31749 whole entry): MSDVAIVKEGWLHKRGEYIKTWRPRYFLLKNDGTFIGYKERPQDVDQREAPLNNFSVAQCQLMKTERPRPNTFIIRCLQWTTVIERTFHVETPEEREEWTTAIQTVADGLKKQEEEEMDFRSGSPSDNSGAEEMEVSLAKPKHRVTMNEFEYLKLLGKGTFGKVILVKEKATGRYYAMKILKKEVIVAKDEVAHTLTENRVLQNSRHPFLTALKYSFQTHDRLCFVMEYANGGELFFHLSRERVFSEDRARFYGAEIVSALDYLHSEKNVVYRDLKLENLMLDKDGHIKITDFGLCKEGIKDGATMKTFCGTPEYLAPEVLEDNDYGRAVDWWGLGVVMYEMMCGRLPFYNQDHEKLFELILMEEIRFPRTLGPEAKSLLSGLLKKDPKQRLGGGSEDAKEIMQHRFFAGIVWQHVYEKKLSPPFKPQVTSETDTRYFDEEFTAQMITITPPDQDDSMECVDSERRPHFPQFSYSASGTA
Source text: as §1

S6K1 = S6K1 (Homo sapiens, UniProt P23443); test: Kinase profiling S6K1
Sequence of S6K1 (P23443 whole entry, species assumed): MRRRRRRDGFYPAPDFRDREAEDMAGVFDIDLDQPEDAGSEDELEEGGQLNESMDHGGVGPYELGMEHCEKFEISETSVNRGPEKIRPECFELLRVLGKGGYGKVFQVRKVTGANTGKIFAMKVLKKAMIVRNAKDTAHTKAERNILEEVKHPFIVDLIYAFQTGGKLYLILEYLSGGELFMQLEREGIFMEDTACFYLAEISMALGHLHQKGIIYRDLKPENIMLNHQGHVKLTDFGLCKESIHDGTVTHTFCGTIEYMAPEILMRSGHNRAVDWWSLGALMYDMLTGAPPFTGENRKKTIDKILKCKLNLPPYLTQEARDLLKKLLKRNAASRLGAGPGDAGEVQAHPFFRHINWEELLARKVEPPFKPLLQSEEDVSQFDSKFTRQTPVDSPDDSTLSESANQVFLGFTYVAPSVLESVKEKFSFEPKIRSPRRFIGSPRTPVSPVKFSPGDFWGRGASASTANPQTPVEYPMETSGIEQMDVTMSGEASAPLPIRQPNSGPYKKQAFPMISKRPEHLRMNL
Source text: as §1

PKA = PKA (Homo sapiens, UniProt P17612); test: Kinase profiling PKA
Source text: as §1

STK33 = STK33 (Homo sapiens, UniProt Q9BYT3); test: Kinase profiling STK33
Sequence of STK33 (Q9BYT3 whole entry, species assumed): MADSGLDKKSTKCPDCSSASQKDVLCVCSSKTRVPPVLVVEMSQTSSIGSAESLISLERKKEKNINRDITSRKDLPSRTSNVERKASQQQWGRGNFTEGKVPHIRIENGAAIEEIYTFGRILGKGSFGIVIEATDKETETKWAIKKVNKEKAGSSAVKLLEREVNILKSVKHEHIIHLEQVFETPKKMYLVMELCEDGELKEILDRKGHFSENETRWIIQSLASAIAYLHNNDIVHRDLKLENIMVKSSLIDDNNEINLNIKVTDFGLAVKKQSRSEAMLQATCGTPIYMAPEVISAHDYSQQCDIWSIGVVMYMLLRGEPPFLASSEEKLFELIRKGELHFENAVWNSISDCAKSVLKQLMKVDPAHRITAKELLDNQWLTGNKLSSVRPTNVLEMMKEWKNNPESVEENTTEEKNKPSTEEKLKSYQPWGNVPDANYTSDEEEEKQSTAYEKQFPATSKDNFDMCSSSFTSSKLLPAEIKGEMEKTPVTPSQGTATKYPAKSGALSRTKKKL
Source text: as §1

CAMKKb = CAMKKb (Homo sapiens, UniProt Q96RR4); test: Kinase profiling CAMKKb
Sequence of CAMKKb (Q96RR4 whole entry, species assumed): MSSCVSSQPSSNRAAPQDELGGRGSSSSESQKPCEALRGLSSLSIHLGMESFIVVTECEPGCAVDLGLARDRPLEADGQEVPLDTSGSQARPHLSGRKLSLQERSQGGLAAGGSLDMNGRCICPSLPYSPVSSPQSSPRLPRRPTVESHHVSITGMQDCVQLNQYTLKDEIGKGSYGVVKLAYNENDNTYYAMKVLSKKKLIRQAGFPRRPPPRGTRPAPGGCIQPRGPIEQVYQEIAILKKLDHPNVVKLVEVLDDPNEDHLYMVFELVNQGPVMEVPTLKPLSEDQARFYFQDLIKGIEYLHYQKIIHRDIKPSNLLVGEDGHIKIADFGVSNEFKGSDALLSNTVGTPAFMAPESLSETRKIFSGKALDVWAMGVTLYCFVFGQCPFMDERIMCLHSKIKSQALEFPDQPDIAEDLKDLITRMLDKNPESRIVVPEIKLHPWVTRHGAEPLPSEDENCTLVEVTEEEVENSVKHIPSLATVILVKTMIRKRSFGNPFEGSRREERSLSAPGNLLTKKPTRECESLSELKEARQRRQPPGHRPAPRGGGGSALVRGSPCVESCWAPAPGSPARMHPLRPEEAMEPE
Source text: as §1

CAMK1 = CAMK1 (Homo sapiens, UniProt Q14012); test: Kinase profiling CAMK1
Sequence of CAMK1 (Q14012 whole entry, species assumed): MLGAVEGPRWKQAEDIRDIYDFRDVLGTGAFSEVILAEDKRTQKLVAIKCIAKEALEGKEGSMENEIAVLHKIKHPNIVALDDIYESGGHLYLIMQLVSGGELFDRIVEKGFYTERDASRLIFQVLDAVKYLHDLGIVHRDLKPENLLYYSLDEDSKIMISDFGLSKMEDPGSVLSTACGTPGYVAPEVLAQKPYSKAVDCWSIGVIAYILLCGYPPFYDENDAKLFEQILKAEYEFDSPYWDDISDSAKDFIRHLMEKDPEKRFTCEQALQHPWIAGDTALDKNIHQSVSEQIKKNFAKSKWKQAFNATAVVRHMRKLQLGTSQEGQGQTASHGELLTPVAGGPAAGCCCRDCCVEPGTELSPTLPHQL
Source text: as §1

MLK3 = MLK3 (Homo sapiens, UniProt Q16584); test: Kinase profiling MLK3
Sequence of MLK3 (Q16584 whole entry, species assumed): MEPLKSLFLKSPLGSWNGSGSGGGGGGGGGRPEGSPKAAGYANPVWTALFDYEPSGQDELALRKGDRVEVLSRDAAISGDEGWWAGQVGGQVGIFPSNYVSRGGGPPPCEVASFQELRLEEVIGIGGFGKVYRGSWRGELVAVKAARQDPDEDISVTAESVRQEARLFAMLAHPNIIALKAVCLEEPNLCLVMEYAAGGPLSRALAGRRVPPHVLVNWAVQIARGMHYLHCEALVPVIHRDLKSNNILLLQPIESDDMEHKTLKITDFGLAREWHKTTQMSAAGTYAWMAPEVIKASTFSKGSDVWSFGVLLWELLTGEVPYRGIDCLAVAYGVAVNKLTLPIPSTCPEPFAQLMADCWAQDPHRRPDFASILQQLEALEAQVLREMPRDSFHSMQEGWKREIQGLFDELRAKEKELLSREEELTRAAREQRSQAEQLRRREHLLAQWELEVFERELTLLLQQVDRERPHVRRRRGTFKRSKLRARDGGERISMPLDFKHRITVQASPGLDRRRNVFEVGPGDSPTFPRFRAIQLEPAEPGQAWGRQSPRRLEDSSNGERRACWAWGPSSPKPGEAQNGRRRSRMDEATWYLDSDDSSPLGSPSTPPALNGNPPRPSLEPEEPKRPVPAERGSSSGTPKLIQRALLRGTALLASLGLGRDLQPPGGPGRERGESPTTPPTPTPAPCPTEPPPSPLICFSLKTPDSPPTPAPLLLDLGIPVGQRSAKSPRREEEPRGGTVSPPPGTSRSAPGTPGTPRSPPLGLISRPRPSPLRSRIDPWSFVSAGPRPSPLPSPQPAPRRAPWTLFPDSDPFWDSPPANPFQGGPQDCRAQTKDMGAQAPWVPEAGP
Source text: as §1

TTK = target: T2, TTK (Homo sapiens, UniProt P33981); test: Kinase profiling TTK
T2 sequence (P33981 1-857): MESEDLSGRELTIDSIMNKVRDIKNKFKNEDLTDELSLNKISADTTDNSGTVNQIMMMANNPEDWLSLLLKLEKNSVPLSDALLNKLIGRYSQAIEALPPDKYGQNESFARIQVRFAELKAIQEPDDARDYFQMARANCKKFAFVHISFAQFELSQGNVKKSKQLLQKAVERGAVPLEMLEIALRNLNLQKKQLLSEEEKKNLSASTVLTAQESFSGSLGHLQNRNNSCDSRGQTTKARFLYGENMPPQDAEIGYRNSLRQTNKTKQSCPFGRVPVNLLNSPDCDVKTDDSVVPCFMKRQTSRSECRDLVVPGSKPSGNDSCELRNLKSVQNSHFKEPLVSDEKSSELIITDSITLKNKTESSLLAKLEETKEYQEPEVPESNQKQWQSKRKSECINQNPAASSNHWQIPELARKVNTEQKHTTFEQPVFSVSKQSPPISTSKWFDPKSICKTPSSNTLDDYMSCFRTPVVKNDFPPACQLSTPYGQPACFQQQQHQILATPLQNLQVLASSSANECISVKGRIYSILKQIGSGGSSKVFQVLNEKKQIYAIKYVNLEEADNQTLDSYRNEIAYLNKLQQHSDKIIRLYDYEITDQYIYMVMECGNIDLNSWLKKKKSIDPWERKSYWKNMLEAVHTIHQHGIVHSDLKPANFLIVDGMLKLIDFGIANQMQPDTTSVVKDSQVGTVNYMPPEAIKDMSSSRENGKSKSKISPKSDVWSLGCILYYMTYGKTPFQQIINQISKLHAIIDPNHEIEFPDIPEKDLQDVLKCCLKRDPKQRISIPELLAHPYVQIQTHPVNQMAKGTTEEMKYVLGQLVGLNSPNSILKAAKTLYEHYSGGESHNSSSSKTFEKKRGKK
Source text: as §1

BTK = BTK (Homo sapiens, UniProt Q06187); test: Kinase profiling BTK
Source text: as §1

JAK2 = JAK2 (Homo sapiens, UniProt O60674); test: Kinase profiling JAK2
Source text: as §1

IGF-1R = IGF-1R (Homo sapiens, UniProt P08069); test: Kinase profiling IGF-1R
Source text: as §1

Row | Structure (SMILES) | residual kinase activity, MKK6 (MKK6) | residual kinase activity, p38a MAPK (p38a MAPK) | residual kinase activity, RSK1 (RSK1) | residual kinase activity, PKBa (PKBa) | residual kinase activity, S6K1 (S6K1) | residual kinase activity, PKA (PKA) | residual kinase activity, STK33 (STK33) | residual kinase activity, CAMKKb (CAMKKb) | residual kinase activity, CAMK1 (CAMK1) | residual kinase activity, MLK3 (MLK3) | residual kinase activity, TTK (TTK) | residual kinase activity, BTK (BTK) | residual kinase activity, JAK2 (JAK2) | residual kinase activity, IGF-1R (IGF-1R)
1 | COc1ccc2sc(NC(=O)c3ccc(NC(C)=O)cc3)nc2c1 [MS:LY-2-77] | 111 | 109 | 85 | 89 | 94 | 102 | 99 | – | – | – | – | – | – | –
2 | COc1ccc2sc(NC(=O)c3cccc(NC(C)=O)c3)nc2c1 [MS:LY-2-85] | 99 | 89 | 54 | 90 | 50 | 98 | 75 | – | – | – | – | – | – | –
3 | CC(=O)Nc1ccccc1C(=O)Nc1nc2ccc(O)cc2s1 [Compound 08-39] | 96 | 96 | 30 | 84 | 12 | 88 | 61 | – | – | – | – | – | – | –
4 | CC(=O)Nc1cccc(C(=O)Nc2nc3ccc(O)cc3s2)c1 [Compound 03-58] | 103 | 81 | 35 | 92 | 9 | 90 | 45 | – | – | – | – | – | – | –
5 | CC(=O)NC(C)C(=O)Nc1nc2ccc(C(F)(F)F)cc2s1 (stereo not shown) [Compound 03-80] | 115 | 79 | 90 | 105 | 97 | 104 | 60 | – | – | – | – | – | – | –
6 | CC(=O)Nc1ccc(C(=O)Nc2nc3cc(O)ccc3s2)cc1 [MS:LY-2-87] | 107 | 73 | 29 | 86 | 39 | 93 | 51 | – | – | – | – | – | – | –
7 | CC(=O)Nc1cccc(C(=O)Nc2nc3cc(O)ccc3s2)c1 [MS:LY-2-89] | 98 | 18 | 13 | 82 | 14 | 87 | 37 | – | – | – | – | – | – | –
8 | COC(=O)c1cccc(C(=O)Nc2nc3cc(OC)ccc3s2)c1 [Compound 03-108] | – | 94 | 70 | 106 | 95 | 92 | – | 80 | 96 | 76 | 94 | 68 | 85 | 123
9 | O=C(Nc1nc2ccc(F)cc2s1)c1ccccc1 [Compound 03-92] | – | 114 | 79 | 99 | 79 | 96 | – | 80 | 97 | 49 | 47 | 73 | 109 | 88
